Data on 3 molecules can be found in patent publication EP4268824A1 (Manros Therapeutics, priority 2022, dated 2023).

Assay [1] deals with F508del-CFTR. The conditions noted are these: Norez et al. 2014; cited from earlier work.
Another assay concerns alveolar macrophages. The conditions noted are these: Riazanski et al. 2015; cited from earlier work.
Assay [2] addresses T1, F508del-CFTR (Homo sapiens, UniProt P13569, DEL508-508).
T1 construct: expressed in transfected cells; host or cells: CFBE41o- cells (CFBE F508del-CFTR), puromycin-selected
Put plainly: CFTR activation assay: short-circuit current measurements (Ussing chamber) in CFBE cells treated 24 h with CFTR modulator(s) plus compound. The format is cell-based. The following applies: for F508del-CFTR activity as percentage of F508del-CFTR activity in the presence of Trikafta alone (100%): CFE cells, with Trikafta. As for the experimental part: • FIG 1. represents the conductance measurement as a function of time for assessing the activity of F508del-CFTR in CFBE cells using the Ussing chamber as set forth in example 13. Cells are incubated for 24 hours with either Trikafta® alone or Trikafta® + a compound of formula (I) as defined herein after. Conductance is measured as a function of time. […] This is the measure which are reported in all Tables shown below. • FIG 2. The correcting effect of Trikafta® on F508del-CFTR in a pulmonary epithelial cell line derived from a F508del-CFTR CF patient was tested as set forth in example 13 herein after in the presence of increasing concentrations of compound (44) as defined herein after and compound (107) as defined herein after. Dose-response curves were built from the activation and inhibition data (see FIG. 1). 100% represents the activity of Trikafta® alone. • FIG 3. […] CFE cells were treated with Trikafta® 100%, 33%, or 11%, in the absence or presence of 1 µM of compound (107). F508del-CFTR activity was monitored as described in the Experimental section and above. Activity is reported as percentage of δF508del-CFTR activity in the presence of Trikafta® alone (100%). The fold change over the activity of Trikafta® alone is indicated in parentheses. • FIG 4. The correcting effect of further CFTR modulators than Trikafta®, i.e. Galapagos compounds as defined herein after (GLPG 222 (G1), GLPG 1837 (G2), GLPG 2451 (G3)) (1 µM each) on F508del-CFTR in a pulmonary epithelial cell line derived from a F508del-CFTR CF patient was tested as set forth in example 13 herein after in the presence of increasing concentrations of compound (107) as defined herein after. Dose-response curves were built from the activation and inhibition data (see FIG. 1). 100% represents the activity of each CFTR modulator alone.
The activity of F508del-CFTR was indeed estimated according to the method described below in example 13. This method makes use of CFBE cells, an immortalized cell line generated from bronchial epithelium of a CF patient homozygous for F508del-CFTR [Kunzelmann, K. et al., 1993. An immortalized cystic fibrosis tracheal epithelial cell line homozygous for the F508del CFTR mutation. Am. J. Respir. Cell Mol. Biol. 8, 522-529.]. Cells are exposed for 24 hours to a combination of Trikafta® and a compound of formula (I) as defined herein after to be evaluated, and the activity of F508del-CFTR is measured by conductance in a Ussing chamber. The activation is initiated by addition of Forskolin (1 µM). […] All compounds tested were evaluated in combination with Trikafta®. In most instances, compounds were tested in triplicates at 0.1, 1 and 10 µM.
Wild-type CFBE cells (containing full-length, unmutated CFTR) are used as a reference.
F508del-CFTR expressing cells used in this present study were treated with CFTR modulators 24 h prior the experiments. The following CFTR modulators were used: Vx770 (Ivacaftor) (Selleckchem, S 1144) (Selleckchem, 24, rue des Tuileries, BP684, 67460 Souffelweyersheim, France), Vx445 (Elexacaftor) (Selleckchem, SE-S8851), Vx661 (Tezacaftor) (TargetMol, HY-15448) (TargetMol, Tebu-bio, 39 rue de Houdan, BP 15, 78612 Le-Perray-en-Yvelines cedex, France). Trikafta® is the combination of 1 µM Vx770, 3 µM Vx 445 and […] Vx661.
CFBE cell line stably expressing F508del-CFTR or WT-CFTR (CFBE WT-CFTR) were grown at 37°C in 5% CO2 - 95% air and media was replaced every 2 days.

The next assay deals with kinase. The following applies: Bettayeb et al. 2008; Popowycz et al. 2009; cited from earlier work.
For assay [3] the following is noted: Bettayeb et al. 2008; Popowycz et al. 2009; cited from earlier work.
The target of the next assay is CLK4 (Homo sapiens, UniProt Q9HAZ1). Put plainly: Kinase inhibition, dose-response. The format is biochemical. The conditions noted are these: read-out: IC50 CLK4; > 10: no inhibition at 10 µM, the highest dose tested. The text has this: All compounds were additionally tested over a range of concentrations for their ability to inhibit a series of 14 kinases. […] Their F508del-CFTR activity is reported as percentage of F508del-CFTR activity in the presence of Trikafta alone (100%).

A further assay addresses CK1ε (Homo sapiens, UniProt P49674). Nature of the assay: Kinase inhibition, dose-response. The format is biochemical. The conditions noted are these: > 10: no inhibition at 10 µM, the highest dose tested. As for the experimental part:
(§1) All compounds were additionally tested over a range of concentrations for their ability to inhibit a series of 14 kinases. IC50 values were calculated from the dose-response curves and are reported in µM. > 10, no inhibition at 10 µM, the highest dose tested (see table 6 below). [drawing 409] Table 5: CFE cells were treated with Trikafta in the presence of increasing concentrations of various compounds and their N7-methylated counterparts. Their F508del-CFTR activity is reported as percentage of F508del-CFTR activity in the presence of Trikafta alone (100%).

In a further assay the target is CDK2 (Homo sapiens, UniProt P24941). Put plainly: Kinase inhibition, dose-response. The conditions noted are these: > 10: no inhibition at 10 µM, the highest dose tested. Type of assay: biochemical. As for the experimental part:
as §1

The next assay addresses CK1γ2 (Homo sapiens, UniProt P78368). Nature of the assay: Kinase inhibition, dose-response. The format is biochemical. The conditions noted are these: > 10: no inhibition at 10 µM, the highest dose tested. How it is done:
as §1

The next assay deals with DYRK1A (Homo sapiens, UniProt Q13627). Nature of the assay: Kinase inhibition, dose-response. Type of assay: biochemical. The following applies: > 10: no inhibition at 10 µM, the highest dose tested. As for the experimental part:
as §1

The target in another assay is CLK1 (Homo sapiens, UniProt P49759). Nature of the assay: Kinase inhibition, dose-response. The following applies: > 10: no inhibition at 10 µM, the highest dose tested. Type of assay: biochemical. As for the experimental part: as §1
CLK1, sequence (P49759 whole entry): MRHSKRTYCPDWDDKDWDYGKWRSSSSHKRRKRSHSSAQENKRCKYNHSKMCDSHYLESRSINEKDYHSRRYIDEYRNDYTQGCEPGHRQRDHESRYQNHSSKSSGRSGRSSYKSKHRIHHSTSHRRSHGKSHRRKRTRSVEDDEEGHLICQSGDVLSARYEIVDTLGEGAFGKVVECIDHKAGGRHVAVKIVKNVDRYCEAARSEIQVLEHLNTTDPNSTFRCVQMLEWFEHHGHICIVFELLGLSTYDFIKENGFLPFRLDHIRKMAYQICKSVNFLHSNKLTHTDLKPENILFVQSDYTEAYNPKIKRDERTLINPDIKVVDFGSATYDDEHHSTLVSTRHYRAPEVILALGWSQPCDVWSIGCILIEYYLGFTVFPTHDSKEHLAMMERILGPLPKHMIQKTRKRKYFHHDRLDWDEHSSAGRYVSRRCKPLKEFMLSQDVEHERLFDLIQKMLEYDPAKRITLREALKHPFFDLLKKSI
The next assay deals with CLK3 (Homo sapiens, UniProt P49761). Nature of the assay: Kinase inhibition, dose-response. Type of assay: biochemical. The conditions noted are these: > 10: no inhibition at 10 µM, the highest dose tested. How it is done: as §1
The next assay has as its target CK1δ (Homo sapiens, UniProt P48730). Nature of the assay: Kinase inhibition, dose-response. Type of assay: biochemical. The following applies: > 10: no inhibition at 10 µM, the highest dose tested. As for the experimental part:
as §1

The target in another assay is CK1α1 (Homo sapiens, UniProt P48729). Nature of the assay: Kinase inhibition, dose-response. Type of assay: biochemical. The conditions noted are these: > 10: no inhibition at 10 µM, the highest dose tested. How it is done:
as §1

Another assay deals with CDK9 (Homo sapiens, UniProt P50750). Nature of the assay: Kinase inhibition, dose-response. Type of assay: biochemical. The conditions noted are these: > 10: no inhibition at 10 µM, the highest dose tested. As for the experimental part:
as §1

In a further assay the target is CK1γ1 (Homo sapiens, UniProt Q9HCP0). Nature of the assay: Kinase inhibition, dose-response. The format is biochemical. The conditions noted are these: > 10: no inhibition at 10 µM, the highest dose tested. As for the experimental part: as §1
The target in a further assay is CK1γ3 (Homo sapiens, UniProt Q9Y6M4). Put plainly: Kinase inhibition, dose-response. The format is biochemical. The following applies: > 10: no inhibition at 10 µM, the highest dose tested. As for the experimental part:
as §1

The target in the next assay is CLK2 (Homo sapiens, UniProt P49760). Put plainly: Kinase inhibition, dose-response. Type of assay: biochemical. The following applies: > 10: no inhibition at 10 µM, the highest dose tested. As for the experimental part: as §1
CLK2, sequence (P49760 whole entry, species assumed): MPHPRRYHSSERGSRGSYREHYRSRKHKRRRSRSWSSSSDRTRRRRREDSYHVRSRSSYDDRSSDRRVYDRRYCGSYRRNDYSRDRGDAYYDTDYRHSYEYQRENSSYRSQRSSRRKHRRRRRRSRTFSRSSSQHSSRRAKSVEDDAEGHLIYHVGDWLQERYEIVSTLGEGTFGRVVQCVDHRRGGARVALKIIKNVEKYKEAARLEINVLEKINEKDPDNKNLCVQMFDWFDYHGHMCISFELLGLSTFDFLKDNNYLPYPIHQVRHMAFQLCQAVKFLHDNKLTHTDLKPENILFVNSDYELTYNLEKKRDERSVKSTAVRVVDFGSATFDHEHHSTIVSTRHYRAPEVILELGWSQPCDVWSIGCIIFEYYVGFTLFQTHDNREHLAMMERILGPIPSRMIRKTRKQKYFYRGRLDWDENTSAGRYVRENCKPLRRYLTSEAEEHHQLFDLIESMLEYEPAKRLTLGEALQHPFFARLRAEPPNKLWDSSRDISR
The target in another assay is CDK7 (Homo sapiens, UniProt P50613). Put plainly: Kinase inhibition, dose-response. Type of assay: biochemical. The following applies: > 10: no inhibition at 10 µM, the highest dose tested. As for the experimental part: as §1

T1 sequence (P13569 with tags, fused parts or gaps DEL508-508): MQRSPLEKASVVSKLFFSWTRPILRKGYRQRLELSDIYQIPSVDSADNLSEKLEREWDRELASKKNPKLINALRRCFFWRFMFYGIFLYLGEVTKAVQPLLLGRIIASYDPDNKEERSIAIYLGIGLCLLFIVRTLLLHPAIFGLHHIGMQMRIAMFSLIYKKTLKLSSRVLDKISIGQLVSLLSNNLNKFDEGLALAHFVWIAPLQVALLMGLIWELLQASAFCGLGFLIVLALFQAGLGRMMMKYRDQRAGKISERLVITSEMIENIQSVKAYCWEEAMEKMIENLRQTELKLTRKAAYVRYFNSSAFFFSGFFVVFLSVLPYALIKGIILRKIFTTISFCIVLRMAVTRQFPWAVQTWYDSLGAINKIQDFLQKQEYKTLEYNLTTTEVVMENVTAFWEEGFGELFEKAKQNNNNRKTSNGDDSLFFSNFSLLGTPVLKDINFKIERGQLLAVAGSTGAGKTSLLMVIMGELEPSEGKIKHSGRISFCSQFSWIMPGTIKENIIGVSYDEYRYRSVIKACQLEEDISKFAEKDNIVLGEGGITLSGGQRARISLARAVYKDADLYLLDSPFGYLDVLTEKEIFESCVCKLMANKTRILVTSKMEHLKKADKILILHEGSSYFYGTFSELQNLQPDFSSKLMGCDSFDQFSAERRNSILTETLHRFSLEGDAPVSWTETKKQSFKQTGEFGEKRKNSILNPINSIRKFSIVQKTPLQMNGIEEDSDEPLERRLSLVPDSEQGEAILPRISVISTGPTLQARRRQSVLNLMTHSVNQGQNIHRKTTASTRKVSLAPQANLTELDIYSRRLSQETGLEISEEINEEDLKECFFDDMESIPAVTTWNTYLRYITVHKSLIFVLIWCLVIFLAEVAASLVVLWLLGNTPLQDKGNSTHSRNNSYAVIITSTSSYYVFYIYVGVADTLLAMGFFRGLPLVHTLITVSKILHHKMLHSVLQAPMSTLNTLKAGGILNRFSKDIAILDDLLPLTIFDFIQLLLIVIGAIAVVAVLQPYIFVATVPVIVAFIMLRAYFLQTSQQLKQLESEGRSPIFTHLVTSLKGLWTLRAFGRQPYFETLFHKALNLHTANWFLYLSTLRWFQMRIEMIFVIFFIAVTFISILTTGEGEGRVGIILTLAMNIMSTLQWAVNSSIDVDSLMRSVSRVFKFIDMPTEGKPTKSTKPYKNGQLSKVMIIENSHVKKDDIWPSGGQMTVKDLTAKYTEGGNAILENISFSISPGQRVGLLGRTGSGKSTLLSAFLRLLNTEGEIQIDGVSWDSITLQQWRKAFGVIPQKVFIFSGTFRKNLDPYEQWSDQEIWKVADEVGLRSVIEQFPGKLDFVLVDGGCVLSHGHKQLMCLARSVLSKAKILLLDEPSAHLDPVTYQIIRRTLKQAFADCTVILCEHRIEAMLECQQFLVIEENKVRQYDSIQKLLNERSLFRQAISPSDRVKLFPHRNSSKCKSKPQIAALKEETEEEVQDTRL
CDK9, sequence (P50750 whole entry, species assumed): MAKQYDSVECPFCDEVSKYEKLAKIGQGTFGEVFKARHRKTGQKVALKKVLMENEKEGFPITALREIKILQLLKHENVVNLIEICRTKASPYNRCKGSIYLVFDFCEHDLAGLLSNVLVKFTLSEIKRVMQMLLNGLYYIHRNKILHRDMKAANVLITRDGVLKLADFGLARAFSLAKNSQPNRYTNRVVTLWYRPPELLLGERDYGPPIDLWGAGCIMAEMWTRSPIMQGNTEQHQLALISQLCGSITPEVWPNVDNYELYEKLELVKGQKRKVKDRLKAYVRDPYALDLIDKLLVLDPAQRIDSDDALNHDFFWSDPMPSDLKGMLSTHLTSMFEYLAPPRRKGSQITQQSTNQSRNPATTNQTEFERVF
CDK9, sequence (O60563 whole entry partner, species assumed): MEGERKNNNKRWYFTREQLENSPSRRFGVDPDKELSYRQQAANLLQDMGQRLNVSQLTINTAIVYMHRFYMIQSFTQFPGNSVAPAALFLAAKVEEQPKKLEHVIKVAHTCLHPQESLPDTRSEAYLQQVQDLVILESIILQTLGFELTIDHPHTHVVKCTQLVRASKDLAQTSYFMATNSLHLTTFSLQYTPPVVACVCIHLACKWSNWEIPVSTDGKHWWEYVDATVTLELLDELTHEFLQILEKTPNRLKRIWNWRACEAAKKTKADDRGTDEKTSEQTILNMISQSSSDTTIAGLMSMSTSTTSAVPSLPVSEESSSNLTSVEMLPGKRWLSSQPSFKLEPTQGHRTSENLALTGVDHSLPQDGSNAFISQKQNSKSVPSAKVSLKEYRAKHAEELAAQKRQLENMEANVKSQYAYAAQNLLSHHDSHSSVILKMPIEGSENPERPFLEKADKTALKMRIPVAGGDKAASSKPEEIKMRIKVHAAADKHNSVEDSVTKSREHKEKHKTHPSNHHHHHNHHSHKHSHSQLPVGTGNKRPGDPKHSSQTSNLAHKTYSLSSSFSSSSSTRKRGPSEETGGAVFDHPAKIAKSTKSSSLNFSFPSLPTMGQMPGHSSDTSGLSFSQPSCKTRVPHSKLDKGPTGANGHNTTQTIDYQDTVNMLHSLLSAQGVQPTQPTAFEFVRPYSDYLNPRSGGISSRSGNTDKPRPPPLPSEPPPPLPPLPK
CK1γ3, sequence (Q9Y6M4 whole entry): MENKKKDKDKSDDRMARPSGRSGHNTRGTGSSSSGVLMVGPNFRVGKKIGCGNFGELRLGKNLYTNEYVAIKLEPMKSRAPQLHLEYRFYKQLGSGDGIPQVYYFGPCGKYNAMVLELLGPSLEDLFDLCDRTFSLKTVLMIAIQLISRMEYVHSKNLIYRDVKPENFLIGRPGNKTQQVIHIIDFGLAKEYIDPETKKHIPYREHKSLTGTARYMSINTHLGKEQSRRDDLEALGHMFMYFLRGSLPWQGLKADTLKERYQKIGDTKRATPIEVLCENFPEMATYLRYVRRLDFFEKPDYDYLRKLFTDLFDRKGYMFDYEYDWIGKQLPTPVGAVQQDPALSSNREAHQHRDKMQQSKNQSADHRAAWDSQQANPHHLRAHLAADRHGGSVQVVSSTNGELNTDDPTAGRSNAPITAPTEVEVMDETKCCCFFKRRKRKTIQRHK
CK1α1, sequence (P48729 whole entry): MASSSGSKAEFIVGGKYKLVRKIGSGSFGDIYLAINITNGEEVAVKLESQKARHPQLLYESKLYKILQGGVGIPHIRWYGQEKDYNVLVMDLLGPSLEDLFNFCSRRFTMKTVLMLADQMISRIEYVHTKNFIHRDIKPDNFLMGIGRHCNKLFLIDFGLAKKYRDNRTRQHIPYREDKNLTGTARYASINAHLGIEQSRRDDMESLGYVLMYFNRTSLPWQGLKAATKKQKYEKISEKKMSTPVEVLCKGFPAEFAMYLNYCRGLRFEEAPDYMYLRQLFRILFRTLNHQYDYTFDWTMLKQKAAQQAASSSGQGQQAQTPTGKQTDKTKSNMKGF
CK1δ, sequence (P48730 whole entry): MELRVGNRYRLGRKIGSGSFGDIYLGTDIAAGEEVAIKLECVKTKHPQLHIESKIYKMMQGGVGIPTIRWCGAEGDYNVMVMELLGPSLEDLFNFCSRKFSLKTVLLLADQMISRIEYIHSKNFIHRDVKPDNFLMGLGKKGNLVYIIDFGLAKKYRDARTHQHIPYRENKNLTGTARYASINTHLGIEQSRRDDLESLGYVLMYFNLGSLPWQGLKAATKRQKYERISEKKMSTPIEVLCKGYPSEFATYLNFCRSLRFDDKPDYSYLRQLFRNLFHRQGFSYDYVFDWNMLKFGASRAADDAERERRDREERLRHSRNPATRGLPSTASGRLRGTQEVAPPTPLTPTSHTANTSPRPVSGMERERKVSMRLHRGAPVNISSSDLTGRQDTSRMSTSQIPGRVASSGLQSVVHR

Regarding `CC[C@H](CO)Nc1nc(NCc2ccccc2)c2ncn(C(C)C)c2n1` [roscovitine], the “correction of the defective function of F508del-CFTR” value in the assay with F508del-CFTR [1] is “partially correct the defective function of F508del-CFTR”. Further, the “intra-phagolysosomal pH of alveolar macrophages” value with alveolar macrophages is “reduce the intra-phagolysosomal pH of alveolar macrophages”. Moreover, the “activating or boosting activity on a human lung epithelium cell line with F508del-CFTR mutation, in combination with Trikafta®” value on F508del-CFTR [2] (result in words) is on record as “no activating or boosting activity”.
Consider `CC[C@H](CO)Nc1nc(NCc2ccccc2)c2ncc(C(C)C)n2n1` [compound 6, (2R)-2-[[4-(Benzylamino)-7-isopropyl-imidazo[2,1-f][1,2,4]triazin-2-yl]amino]butan-1-ol], for which, on kinase, the kinase inhibitory activity entry was “modest kinase inhibitory activity”. Also, the antitumor properties result in [3] was “modest antitumor properties”.
For `CC(C)c1cnc2c(N(C)Cc3ccccc3)nc(N[C@@H]3CCOC3)nn12` [compound 32], the half-maximal inhibitory concentration (IC50) on CLK4, against CK1ε, against CDK2, on CK1γ2, against DYRK1A and at CLK1 was greater than 10 µM in each case. For the same molecule, the 50% inhibitory concentration (IC50) at CLK3, at CK1δ, at CK1α1, against CDK9, on CK1γ1 and at CK1γ3 was greater than 10 µM each time. The half-inhibitory concentration (IC50) on CLK2 and against CDK7 was greater than 10 µM in each case. Besides, the entries for the “F508del-CFTR activity as percentage of F508del-CFTR activity in the presence of Trikafta alone (100%)” value on F508del-CFTR [2] (concentration 0.1 µM), at F508del-CFTR [2] (concentration 1 µM) and at F508del-CFTR [2] (concentration 10 µM) were 117.9%, 113.7% and 135.1%, respectively.
